Experimental data as given in ChEMBL document CHEMBL1201862, “PubChem BioAssay data set” (2004).
Activity calls are given as the source filed them.

What was measured:
[1] = molecular target: Large T antigen (Simian virus 40, UniProt P03070); type: functional, Betapolyomavirus macacae;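 further: Confirmatory-stage PubChem screen for compounds that inhibit SV40 T antigen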
[2] = molecular target: T1, Protein Tat (Human immunodeficiency virus type 1 group M subtype B (isolate HXB2)(HIV-1), UniProt P04608); type: functional;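 further: tat binding to TAR RNA read out by fluorescence polarization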
T1 sequence (P04608 whole entry): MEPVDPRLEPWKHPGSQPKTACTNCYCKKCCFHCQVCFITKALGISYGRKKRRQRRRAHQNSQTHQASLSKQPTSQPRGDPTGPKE

[3] = THP-1 cell cytotoxicity, dose response, cytotoxicity control for Vif-APOBEC3G degradation inhibitor project, THP-1 cells (AID 1117359); type: functional; details: Human immunodeficiency virus 1, THP-1
[4] = system: Escherichia coli; test: microbe, parasite or virus in culture
[5] = molecular target: Prothrombin (Homo sapiens, UniProt P00734); test: Thrombin 1536 HTS Dose Response Confirmation. [Related pubchem assays: 1046 (Thrombin 1536 HTS; hits were confirmed in this assay)]; type: functional
[6] = cytotoxicity toward NIH3T3 fibroblasts, dose response, counter-screen, cell-based, ATP luminescence, mouse fibroblasts (AID 2010); type: functional;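 further: cells exposed to compound for about 90 hours before reading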
[7] = inhibitors of intracellular T. cruzi replication, confirmation, NIH3T3 host cells, beta-gal luminescence (AID 2044); type: functional, cell-based;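 further: intracellular parasites grown in NIH/3T3 mouse fibroblasts as host cells; luminescent beta-galactosidase reporter signal from transgenic T. cruzi replicating inside host cells; inhibitors lower the luminescence signal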
[8] = HCT116 cell viability decrease, GSK3B pretreatment – CellTiter-Glo, IC50, dose response (AID 1117339); type: functional; details: HCT-116
[9] = CellTiter-Glo luminescent dose response of DLD-1 viability loss (AID 1117352); type: functional
[10] = Concentration-dependent survival of SW480 colon cancer line, luminescence detection with CellTiter-Glo, half-maximal inhibitory concentration (AID 1117338); type: functional
[11] = cytotoxicity toward HCT116 cells – cell-based, CellTiter-Glo luminescence, IC50, dose response (AID 1117332); type: functional; details: HCT-116
[12] = SNU-C1 cell viability reduction, dose response, CellTiter-Glo luminescence (AID 1117323); type: functional, cell-based
[13] = cytotoxicity toward Colo320 cells – cell-based, CellTiter-Glo luminescence, IC50, dose response (AID 1117334); type: functional; details: COLO 320
[14] = RKO cell viability reduction, dose response, CellTiter-Glo luminescence (AID 1117322); type: functional
[15] = cytotoxicity toward HT-29 cells – cell-based, CellTiter-Glo luminescence, IC50, dose response (AID 1117330); type: functional
[16] = cells
[17] = M. tuberculosis H37Rv growth inhibitors, H37Rv strain (AID 1626); type: functional
[18] = molecular target: Cytochrome P450 2C19 (Homo sapiens, UniProt P33261); test: Cytochrome panel assay with activity outcomes. Panel member name: p450-cyp2c19 Compounds with AC50 equal or less than 10 uM are considered active; type: functional; details: read-out: AC50
Cytochrome P450 2C19, sequence (P33261 whole entry): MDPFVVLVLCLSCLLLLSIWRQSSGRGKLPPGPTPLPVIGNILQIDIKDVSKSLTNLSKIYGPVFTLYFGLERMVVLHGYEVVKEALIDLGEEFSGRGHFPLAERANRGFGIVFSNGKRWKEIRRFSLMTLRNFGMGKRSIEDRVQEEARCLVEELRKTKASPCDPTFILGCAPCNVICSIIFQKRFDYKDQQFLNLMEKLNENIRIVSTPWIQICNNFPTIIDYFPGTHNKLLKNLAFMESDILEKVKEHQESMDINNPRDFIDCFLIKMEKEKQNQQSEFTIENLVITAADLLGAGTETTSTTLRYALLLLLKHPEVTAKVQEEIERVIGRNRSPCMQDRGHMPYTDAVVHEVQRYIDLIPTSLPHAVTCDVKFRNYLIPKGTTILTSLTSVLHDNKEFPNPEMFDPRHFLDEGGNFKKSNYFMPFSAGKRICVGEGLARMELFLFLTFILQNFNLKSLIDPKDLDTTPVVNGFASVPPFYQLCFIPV

[19] = inhibitors of SNCA 5'UTR-driven translation, confirmation, luminescence, H4 neuroglioblastoma cells, dose confirmation (AID 2454); type: functional, cell-based;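 further: H4 neuroglioblastoma cells carrying an alpha-synuclein 5'UTR luciferase reporter; potency for inhibition of the luciferase signal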
[20] = luciferase reporter signal reduction – luminescence, H4-C neuroglioblastoma cells, dose response (AID 2458); type: functional, cell-based;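 further: H4 neuroglioblastoma cells stably carrying a luciferase reporter gene fusion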
[21] = cells; type: functional, cell-based
[22] = cytotoxicity in HEK-293T cells, dose response, cytotoxicity control for TCR NF-kB inhibitor project, luminescence, T-cell screen hits (AID 489026); type: functional, cell-based;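 further: cells exposed to compound about 14 hours before the viability readout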
[23] = Luminescence Cell-Based Dose Response HTS to Identify Inhibitors of 5'UTR Stem-Loop Driven Prion Protein mRNA Translation in H4 Neuroglioblastoma Cells. [Related pubchem assays: 1827 (Project Summary), 1813 (Primary HTS)]; type: functional
[24] = Luminescence-based dose response cell-based high throughput screening assay for cytotoxic compounds using the IEC-6 intestinal epithelial cell line. [Related pubchem assays: 1858 (Summary AID.), 1825 (Counterscreen.), 1907 (Confirmation screen.)]; type: functional
[25] = inhibitors of SNCA 5'UTR-driven reporter translation, confirmation, H4 neuroglioma cells, luminescence (AID 1988); type: functional, cell-based
[26] = molecular target: Trypsin (Sus scrofa, UniProt P00761); test: porcine trypsin inhibitors, dose response, selectivity assay for Rce1 protease inhibitor project, biochemical, quenched peptide fluorescence, cherry-pick (AID 488789)
Trypsin, sequence (P00761 whole entry): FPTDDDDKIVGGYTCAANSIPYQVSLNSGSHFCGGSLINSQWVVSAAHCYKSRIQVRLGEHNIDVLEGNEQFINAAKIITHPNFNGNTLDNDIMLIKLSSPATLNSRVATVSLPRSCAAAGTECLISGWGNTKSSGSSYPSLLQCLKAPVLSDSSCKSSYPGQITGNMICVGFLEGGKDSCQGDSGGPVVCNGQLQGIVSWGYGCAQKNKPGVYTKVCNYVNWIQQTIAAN

[27] = system: Streptococcus sp. 'group A'; test: growth inhibition of control SK(-) GAS strain, dose response, counter-screen for streptokinase expression inhibitor project, luminescence, kanamycin, BacTiterGlo, confirmation (AID 1900); type: functional, organism-based
[28] = system: Streptococcus; test: Group A Streptococcus viability loss, dose response, counter-screen for streptokinase expression inhibitor project, luminescence, BacTiterGlo (AID 1915); type: functional, organism-based;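 further: potency for reduction of bacterial viability or growth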
[29] = molecular target: T2, Streptokinase A (Streptococcus pyogenes serotype M1, UniProt P10520); test: S. pyogenes streptokinase expression inhibitors, potency, dose response, plasminogen activation absorbance, OD405 (AID 1914); type: functional, Streptococcus pyogenes M1 GAS;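 further: secreted streptokinase activity via plasminogen activation per viability signal from cell pellet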
T2 sequence (P10520 whole entry): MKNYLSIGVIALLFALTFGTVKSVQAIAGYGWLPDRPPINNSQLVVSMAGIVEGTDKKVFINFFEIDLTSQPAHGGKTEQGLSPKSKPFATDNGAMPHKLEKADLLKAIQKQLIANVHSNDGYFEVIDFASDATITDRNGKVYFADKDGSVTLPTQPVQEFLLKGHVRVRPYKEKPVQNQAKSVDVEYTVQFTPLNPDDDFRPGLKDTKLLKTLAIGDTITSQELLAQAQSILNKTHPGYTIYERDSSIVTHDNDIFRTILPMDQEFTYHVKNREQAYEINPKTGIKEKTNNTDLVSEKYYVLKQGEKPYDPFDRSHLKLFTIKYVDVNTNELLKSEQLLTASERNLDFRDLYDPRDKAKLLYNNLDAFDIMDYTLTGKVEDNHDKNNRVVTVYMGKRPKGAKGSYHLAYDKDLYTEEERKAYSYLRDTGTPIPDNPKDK

[30] = molecular target: T3, Heat shock factor protein 1 (Mus musculus, UniProt P38532); test: inhibition of MG132-induced HSE-luciferase signal, confirmation, cell-based, NIH3T3, luminescence, dose retest (AID 2382); type: functional;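 further: NIH3T3 fibroblasts with HSF1-driven luciferase reporter stressed by proteasome inhibitor MG132; luminescence from HSF1-driven luciferase expression after 8 hours of MG132 stress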
T3 sequence (P38532 whole entry): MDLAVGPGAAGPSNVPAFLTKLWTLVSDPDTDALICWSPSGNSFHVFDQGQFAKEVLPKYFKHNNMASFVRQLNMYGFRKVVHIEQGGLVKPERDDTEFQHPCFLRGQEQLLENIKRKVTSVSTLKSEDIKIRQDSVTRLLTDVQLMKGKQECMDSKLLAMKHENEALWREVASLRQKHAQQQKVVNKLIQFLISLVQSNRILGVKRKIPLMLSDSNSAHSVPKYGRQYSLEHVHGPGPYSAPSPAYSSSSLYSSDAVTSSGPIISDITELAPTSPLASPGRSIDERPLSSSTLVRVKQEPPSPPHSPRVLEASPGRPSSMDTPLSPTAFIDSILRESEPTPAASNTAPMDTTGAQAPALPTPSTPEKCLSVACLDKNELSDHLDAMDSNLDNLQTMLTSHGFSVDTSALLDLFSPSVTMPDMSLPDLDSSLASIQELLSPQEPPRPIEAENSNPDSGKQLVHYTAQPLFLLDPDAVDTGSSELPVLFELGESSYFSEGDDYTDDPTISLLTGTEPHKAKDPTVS

[31] = molecular target: Cytochrome P450 3A4 (Homo sapiens, UniProt P08684);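 further: CYP3A4 tested as one member of a cytochrome P450 panel screen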
Cytochrome P450 3A4, sequence (P08684 whole entry): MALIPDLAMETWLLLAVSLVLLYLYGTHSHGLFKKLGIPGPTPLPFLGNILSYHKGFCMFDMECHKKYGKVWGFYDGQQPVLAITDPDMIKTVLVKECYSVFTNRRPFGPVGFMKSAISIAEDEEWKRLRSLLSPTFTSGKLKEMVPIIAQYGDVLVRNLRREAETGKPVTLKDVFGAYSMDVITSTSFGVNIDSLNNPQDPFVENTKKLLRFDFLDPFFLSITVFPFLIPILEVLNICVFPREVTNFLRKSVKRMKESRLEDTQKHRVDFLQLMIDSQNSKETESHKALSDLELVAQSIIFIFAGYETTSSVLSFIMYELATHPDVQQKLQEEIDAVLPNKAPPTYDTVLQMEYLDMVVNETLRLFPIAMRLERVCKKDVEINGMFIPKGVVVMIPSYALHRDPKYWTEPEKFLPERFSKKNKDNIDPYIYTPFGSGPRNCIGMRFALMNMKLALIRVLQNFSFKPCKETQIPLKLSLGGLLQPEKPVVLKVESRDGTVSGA

[32] = molecular target: Cytochrome P450 2D6 (Homo sapiens, UniProt P10635);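 further: CYP2D6 member of a cytochrome P450 panel assay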
Cytochrome P450 2D6, sequence (P10635 whole entry): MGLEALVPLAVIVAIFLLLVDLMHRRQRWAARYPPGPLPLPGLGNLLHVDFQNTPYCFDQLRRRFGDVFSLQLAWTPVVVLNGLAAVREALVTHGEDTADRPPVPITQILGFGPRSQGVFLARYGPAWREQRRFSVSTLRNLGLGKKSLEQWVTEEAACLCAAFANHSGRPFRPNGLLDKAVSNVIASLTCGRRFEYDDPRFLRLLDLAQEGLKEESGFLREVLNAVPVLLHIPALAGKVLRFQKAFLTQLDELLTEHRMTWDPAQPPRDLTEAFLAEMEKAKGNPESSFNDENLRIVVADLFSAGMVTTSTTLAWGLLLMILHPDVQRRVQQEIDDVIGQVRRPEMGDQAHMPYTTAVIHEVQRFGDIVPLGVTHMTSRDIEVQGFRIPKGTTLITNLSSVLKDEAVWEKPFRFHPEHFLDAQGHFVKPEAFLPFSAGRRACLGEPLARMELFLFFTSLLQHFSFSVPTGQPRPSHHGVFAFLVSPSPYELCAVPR

Large T antigen, sequence (P03070 whole entry): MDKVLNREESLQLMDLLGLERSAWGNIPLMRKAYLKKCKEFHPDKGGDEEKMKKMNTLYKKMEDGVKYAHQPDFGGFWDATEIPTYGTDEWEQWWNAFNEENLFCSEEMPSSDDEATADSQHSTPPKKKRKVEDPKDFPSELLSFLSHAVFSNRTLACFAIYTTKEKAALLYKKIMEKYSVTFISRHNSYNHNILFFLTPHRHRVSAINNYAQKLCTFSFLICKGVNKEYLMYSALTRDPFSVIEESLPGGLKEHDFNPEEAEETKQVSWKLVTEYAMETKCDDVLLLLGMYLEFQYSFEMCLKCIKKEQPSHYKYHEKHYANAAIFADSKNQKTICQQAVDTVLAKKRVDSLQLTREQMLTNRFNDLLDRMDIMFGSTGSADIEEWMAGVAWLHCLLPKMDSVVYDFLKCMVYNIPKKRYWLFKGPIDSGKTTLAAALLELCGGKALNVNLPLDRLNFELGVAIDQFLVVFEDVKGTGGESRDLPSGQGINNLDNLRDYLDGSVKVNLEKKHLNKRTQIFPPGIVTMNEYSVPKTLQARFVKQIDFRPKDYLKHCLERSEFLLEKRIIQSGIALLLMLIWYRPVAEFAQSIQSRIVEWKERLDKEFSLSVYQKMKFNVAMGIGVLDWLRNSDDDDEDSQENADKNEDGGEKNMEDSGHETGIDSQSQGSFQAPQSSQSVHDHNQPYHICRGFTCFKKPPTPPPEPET

In the case of `Cc1c(NC(=O)CN2CCN(c3ccc(O)cc3)CC2)c(=O)n(-c2ccccc2)n1C`, the IC50 [1] is reported as 13.7 µM (active), the IC50 [2] is reported as > 100 µM (active) and the CC50 [3] is reported as > 40 µM (active). The AC50 [4] was 38.1 µM (active).

In the case of `Cc1cc(C)c2c3c(sc2n1)C(c1cccc(F)c1)C(C#N)=C(N)O3` (stereo not drawn), the IC50 [5] is reported as > 50 µM (not active), the EC50 [6] is reported as > 30 µM (not active) and the EC50 [7] is reported as 0.191 µM (active).

For `COc1ccc(N(C(=O)c2ccco2)S(=O)(=O)c2ccccc2)cc1`, the IC50 [5] was 4.64 µM (active).

In the case of `CCCCCCCCCCCCCCCCC(C(=O)O)C(O)(CC(=O)O)C(=O)O` (stereo not drawn), the IC50 [8] is reported as 4.34 µM (active), the IC50 [9] is reported as 4.28 µM (active) and the IC50 [10] is reported as 1.2 µM (active). The IC50 [11] was 8.68 µM (inactive), the IC50 [12] was 1.36 µM (active) and the IC50 [13] was 1.36 µM (active). For the same molecule, the IC50 [14] was 3.48 µM (active) and the IC50 [15] was 4.1 µM (active).

With `CN(C)CCN(C(=O)c1ccc(S(=O)(=O)N(C)C)cc1)c1nc2cc3c(cc2s1)OCCO3` the EC50 [16] was 0.069 µM (active), the EC50 [6] was > 30 µM (not active) and the EC50 [7] was < 0.1 µM (active).

With `COCC(C)N(C(=O)CCl)c1c(C)csc1C` (stereo not drawn) the IC50 [8] was > 20 µM (inactive), the IC50 [9] was > 20 µM (inactive) and the IC50 [10] was > 20 µM (inactive). The IC50 [11] was > 20 µM (inactive), the IC50 [12] was > 20 µM (inactive) and the IC50 [13] was > 20 µM (inactive). The IC50 [14] was > 20 µM (inactive) and the IC50 [15] was > 20 µM (inactive).

For `O=C(CCC(=O)Nc1ccc(Oc2ccccc2)cc1)NCCO`, the IC50 [17] was > 100 µM (active).

For `CC1=C(C#N)C(=O)N(C)C(C)(C)C1`, the IC50 [2] was > 100 µM (active).

With `COC(=O)c1ccc(COC(=O)CNS(=O)(=O)c2ccccc2)cc1` the IC50 [5] was > 50 µM (not active).

In the case of `Oc1c(/C=N/c2ccc(Oc3ccccc3)cc2)cnn1-c1cccc(Cl)n1`, the IC50 [17] is reported as > 100 µM (active) and the AC50 [18] is reported as 11.2 µM (inconclusive).

For `CC/C=C/CC(=O)N[C@@H](c1ccccc1)[C@@H](O)C(=O)O[C@H]1C[C@@]2(O)[C@@H](OC(=O)c3ccccc3)C3[C@](C)(C(=O)[C@H](OC(C)=O)C(=C1C)C2(C)C)[C@@H](O)C[C@H]1OC[C@@]31OC(C)=O` (stereo partly drawn), the EC50 [19] was 0.021 µM (active), the EC50 [20] was 0.062 µM (active) and the EC50 [21] was 0.307 µM (active). For the same molecule, the IC50 [22] was > 80 µM (inactive), the EC50 [23] was < 0.1 µM (active) and the IC50 [24] was 0.0795 µM (active). For the same molecule, the EC50 [25] was < 0.1 µM (active).

With `CCOc1ccc2[nH]c3c(N4CCc5ccccc5C4)ncnc3c2c1` the AC50 [26] was 6.04 µM (active), the EC50 [27] was 10.4 µM (active) and the IC50 [24] was 5.99 µM (active). For the same molecule, the EC50 [28] was 19.9 µM (active) and the EC50 [29] was > 150 µM (not active).

For `OC1CCN(Cc2cccc(Oc3ccccc3)c2)CC1`, the EC50 [16] was 0.073 µM (active), the EC50 [30] was > 195 µM (not active) and the EC50 [6] was > 30 µM (not active). The EC50 [7] was < 0.1 µM (active).

With `Cc1ccc(CCN2CC(C(=O)NCCCN(C)Cc3ccccc3)CC2=O)cc1` (stereo not drawn) the EC50 [16] was 0.033 µM (active), the AC50 [31] was 31.6 µM (inconclusive) and the AC50 [32] was 14.1 µM (inconclusive). For the same molecule, the EC50 [6] was 15.8 µM (active) and the EC50 [7] was < 0.1 µM (active).
